# Measurements reported in publication PMC3748599 (Environmental science & technology, 2013).
# Where two headings read alike, the source gives them in different places.
# Assays:
# [1] = tested on: rat liver microsomes; experiment: Enantioselective analysis; type: in vitro ADME; conditions: for enantiomeric enrichment of the parent compound: racemic substrate; for enantiomeric fraction (EF) of metabolite, range: range over microsomal preparations
# [2] = cited from earlier work
# [3] = tested on: rat liver microsomes; conditions: for parent compound detected at end of incubation (% of initial amount): 30 min; for HEPOXB formed (% of the HEPTA added): substrate HEPTA
# [4] = tested on: CYP1A; conditions: liver microsomes of pretreated male rats; cited from earlier work
# [5] = tested on: CYP2B; conditions: liver microsomes of pretreated male rats; cited from earlier work
# [6] = tested on: CYP3A; conditions: liver microsomes of pretreated male rats; cited from earlier work
# [7] = microsomes from DX-pretreated rats
# [8] = microsomes from PB-pretreated rats
# [9] = microsomes from VH-pretreated rats
# [10] = microsomes from DX- and VH-pretreated rats
# [11] = formed from cis- and trans-chlordane
# [12] = substrate racemic C-CHLORD, microsomes from PB-pretreated rats
smiles,measurement,setting,value
"ClC1=C(Cl)[C@]2(Cl)[C@H]3[C@H](Cl)[C@@H](Cl)C[C@H]3[C@@]1(Cl)C2(Cl)Cl (relative stereo) [T-CHLORD, trans-chlordane]",enantiomeric enrichment of the parent compound,[1]; [7],slight enrichment of (-)-T-CHLORD
same,enantiomeric enrichment of the parent compound,[1]; [8],(-)-T-CHLORD was highly enriched
same,enantiomeric enrichment of the parent compound,[1]; [9],No enantiomeric enrichment
same,enantiomeric enrichment in tissues,[2]; rats treated with T-CHLORD,(-)-T-CHLORD is enriched
same,parent compound detected at end of incubation (% of initial amount),[3]; [7],80%
same,parent compound detected at end of incubation (% of initial amount),[3]; [8],32%
same,parent compound detected at end of incubation (% of initial amount),[3]; [9],94%
"ClC1=C(Cl)C2(Cl)[C@H]3C[C@H](Cl)[C@H](Cl)[C@H]3C1(Cl)C2(Cl)Cl (stereo partly drawn) [C-CHLORD, cis-Chlordane]",enantiomeric enrichment of the parent compound,[1]; [7],did not reach statistical significance
same,enantiomeric enrichment of the parent compound,[1]; [8],(-)-C-CHLORD was only modestly enriched
same,enantiomeric enrichment of the parent compound,[1]; [9],(-)-C-CHLORD was only modestly enriched
same,change of parent compound levels in incubation,[3]; [10],no statistically significant change
same,change of parent compound levels in incubation,[3]; [8],clearly decreased
"ClC1=C(Cl)[C@]2(Cl)[C@@H]3[C@@H](Cl)[C@H]4O[C@H]4[C@@H]3[C@@]1(Cl)C2(Cl)Cl (single isomer, unassigned; isomer b) [HEPOXB, heptachlor epoxide isomer B]","enantiomeric fraction (EF) of metabolite, range",[1]; formed from heptachlor,0.44-0.54
same,enantiomeric enrichment of metabolite,"[1]; substrate racemic HEPTA, microsomes from DX-pretreated rats",enrichment of (-)-HEPOXB
same,enantiomeric enrichment of metabolite,"[1]; substrate racemic HEPTA, microsomes from PB-pretreated rats",slight but significant enrichment of (+)-HEPOXB
same,enantiomeric enrichment of metabolite,"[1]; substrate racemic HEPTA, microsomes from VH-pretreated rats",enrichment of (-)-HEPOXB
same,HEPOXB formed (% of the HEPTA added),[3]; [7],47%
same,HEPOXB formed (% of the HEPTA added),[3]; [8],82%
same,HEPOXB formed (% of the HEPTA added),[3]; [9],33%
"ClC1=C(Cl)[C@]2(Cl)[C@H]3[C@H]([C@H](Cl)[C@]4(Cl)O[C@H]34)[C@@]1(Cl)C2(Cl)Cl [OXY, oxychlordane]","enantiomeric fraction (EF) of metabolite, range",[1]; [11],0.45-0.89
same,enantiomeric enrichment of metabolite,[1]; [12],(+)-OXY was enriched
same,enantiomeric enrichment of metabolite,"[1]; substrate racemic T-CHLORD, microsomes from DX-pretreated rats",(-)-OXY was slightly enriched
same,enantiomeric enrichment of metabolite,"[1]; substrate racemic T-CHLORD, microsomes from PB-pretreated rats",Enrichment of (+)-OXY
same,enantiomeric enrichment in vivo,[2]; female rats treated for 28 days with trans-nonachlor or T-CHLORD,enrichment of (+)-OXY
same,enantiomeric enrichment in vivo,"[2]; male rats, all time-points investigated",(-)-OXY was enriched
same,OXY formed (% of the total C-CHLORD added),"[3]; substrate C-CHLORD, microsomes from PB-pretreated rats",approximately 2%
same,"OXY levels formed, PB versus DX microsomes","[3]; substrate T-CHLORD, PB- versus DX-pretreated rats",9 times
"ClC1=C(Cl)[C@]2(Cl)[C@@H]3[C@@H](Cl)[C@@H]4O[C@@H]4[C@@H]3[C@@]1(Cl)C2(Cl)Cl (single isomer, unassigned; isomer a) [HEPOXA, heptachlor epoxide isomer A]",formation as metabolite from HEPTA,[3]; all three rat liver microsomal preparations,not to HEPOXA
"ClC1=C(Cl)C2(Cl)C3C(Cl)C=CC3C1(Cl)C2(Cl)Cl (stereo not drawn) [HEPTA, Heptachlor]",formation as metabolite from both chlordane isomers,[3]; microsomal incubations with T-CHLORD and C-CHLORD,not detected
same,change of parent compound levels in incubation,[3]; [10],significant decrease
same,change of parent compound levels in incubation,[3]; [8],significant decrease
same,parent compound detected at end of incubation (% of initial amount),[3]; [8],6%
"ClC1=CC2C(C1Cl)C1(Cl)C(Cl)=C(Cl)C2(Cl)C1(Cl)Cl (stereo not drawn) [DCC, 1,2-dichlorochlordene]","enantiomeric fraction (EF) of metabolite, range",[1]; [11],0.42-0.90
same,enantiomeric enrichment of metabolite,"[1]; substrate racemic C-CHLORD, microsomes from DX-pretreated rats",clear enrichment of E1-DCC
same,enantiomeric enrichment of metabolite,[1]; [12],enrichment of E2-DCC
same,enantiomeric enrichment of metabolite,"[1]; substrate racemic C-CHLORD, microsomes from VH-pretreated rats",clear enrichment of E1-DCC
"CCC1(c2ccccc2)C(=O)NC(=O)NC1=O [PB, phenobarbital]",CYP1A activity relative to microsomes from VH-pretreated animals,[4],4 times
same,CYP2B activity relative to microsomes from VH-pretreated animals,[5],96 times
same,CYP3A activity relative to microsomes from VH-pretreated animals,[6],2 times
